Measured values: US8324282B2, “Alkylating agent combinations in the treatment of cancer” (Case Western Reserve University, priority 1999, dated 2012)

Key:
[1] = Toxicity evaluation in mice bearing HCT116 xenograft; details: Table 2 doses
Procedure: (§4) Tumors in Nude Mice. Tumor cells (5×10^6) were injected into flanks of female athymic HSD nude mice, at 6-8 weeks of age. The tumors were measured with calipers using the National Cancer Institute formula: V=L(mm)×I^2 (mm)/2 where L is the largest diameter and I is the smallest diameter of the tumor. […] Toxicity Evaluation. Toxicity after treatment was evaluated by body weight measurements and peripheral WBC counting. Body weight was measured three times weekly from the first treatment until 2 weeks after the end of treatment. The weight loss was expressed as a percentage of the initial weight (initial weight−lowest weight/initial weight×100%).

[2] = system: AP-endonuclease (APE); test: AP site cleavage by AP-endonuclease (APE); assay type: biochemical
Procedure: 2. AP sites cleavaged by AP-endonuclease (APE). […] The assay may be performed as follows (see also FIGS. 23A and B):
a. AP site is prepared by replacing single nucleoside with deoxyuridine in duplex oligonucleotides (40 mer).
b. Regular AP site is produced in the duplex oligonucleotides by human uracil DNA glycosylase (LIDGase, Trevigen, Gaithersburg, Md.) to remove the uracil residue.
c. To generate MX-adducted AP site substrates: the UDG-treated duplex oligonucleotides are mixed with 10 mM MX in buffer containing 10 mM KPO4, pH 7.1 and incubated at 37° C. After 30 min, the substrates are recovered by ethanol precipitation, lyophilized, resuspended in water, and stored at −20° C.
d. APE-cleavage reaction: DNA substrates containing either regular AP-sites or chemicalmodified AP sites are incubated with APE (Trevigen, Gaithersburg, Md.) for 30 min and reactants are precipitated with 100% cold ethanol, washed with 70% ethanol and resuspended in TE buffer. The reactants are resolved by denaturing 20% polyacrylamide gel electrophoresis and visualized by silver staining (Silver Staining Kit, Pharmacia Biotech).

[3] = Acute toxicity of MX (i.p.); details: mice, single injection
Procedure: Three mice per group were injected (i.p.) with MX at doses of 1, 2, 4, 6, 10 and 15 mg/kg for the test of acute toxicity.

[4] = Toxicity evaluation in mice bearing SW480 xenograft; details: Table 1 doses
Procedure: as §4

[5] = system: HCT116 cells; test: Colony survival assay, HCT116; assay type: cell-based, human; details: HCT116
Text: (§1) Chemicals and Reagents. BG was generously provided by Dr. Robert Moschel (Frederick Cancer Research and Development Center, National Cancer Institute). Stock solution was made in dimethylsulfoxide. TMZ and BCNU were obtained from the Drug Synthesis and Chemistry Branch, Drug Therapeutic Program, National Cancer Center Institute. PD128763 was a gift from Park-Davis Pharmaceutical Division. 6-AN, 3-AB, MX and methylmethane sulfonate (MMS) were purchased from Sigma (ST. Louis, Mo.). Stock solutions of PD128763, 3-AB and 6-AN were prepared by dissolving in dimethylsulfoxide and added to cell culture at a final concentration of <1% DMSO, when cells were treated with these compounds. MX was dissolved in sterilized water (pH 7.0). All stock solutions were kept at −20° C. BCNU was prepared fresh in 0.5 ml of 100% ethanol, diluted in PBS, and used with in 10 min. Colony Survival Assay. SW480 cells were obtained from the ATCC. HCT116 cells were obtained from R. Boland, University of Michigan Medical Center. All cell lines were cultured in appropriate growth medium.
(§2) Cells (2000/dish) were plated, adhered for 18 hrs and treated with TMZ or
(§3) MMS plus or minus modifiers such as […], MX, 6-AN, 3-AB or PD128763, according to experimental protocol. After treatment, cells were washed and fresh medium was replaced. The cells were grown for a further 7 days prior to staining with methylene blue for determination of colonies containing more than 50 cells. Comparisons of drug induced cytotoxicity consisted of a calculation of the dose modification factor (DMF), defined as the ratio of the IC50 of either TMZ or MMS in the absence to that in the presence of indicted modifier(s), i.e., DMF═IC50 for TMZ alone/IC50 for TMZ plus modifier(s).

[6] = system: HCT116 cells; test: Flow cytometry cell cycle distribution and apoptosis, HCT116; assay type: cell-based, human
[7] = system: SW480 cells; test: Colony survival assay, SW480; assay type: cell-based, human
Text: as §1, §2, §3

[8] = system: SW480 cells; test: Flow cytometry cell cycle distribution and apoptosis, SW480
Procedure: Median Effect Analysis (MEA). MEA was used to determine the dose-response interactions between TMZ and either MX or PD 128763. Drugs were combined at the ratio of the IC50 values for either TMZ and MX or TMZ and PD 128763 as determined by survival/concentration curves. The combination was compared to the cytotoxicity of each drug alone in every experiment. The combination index (CI) was determined from colony-forming assays at increasing levels of cell killing, using analysis of multiple drug interaction program (Biosoft, Cambridge, United Kingdom) developed based on method of Chou and Talalay (Chou and Talalay “Quantitative analysis of dose-effect relationship: the combined effects of multiple drugs on enzyme inhibitors” In: G. Weber (ed.) Advances in Enzyme Regulation, pp. 27-55, New York: Pergamon Press, 1983). […] DNA fluorescence of PI-stained cells was measured with an Elite ESP flow cytometer/cell sorter (Coulter, Miami, Fla.). Cell cycle distribution was analyzed with Modfit 5.2 program (Verity software, Topsham, Mass.) at least 10,000 cells per data point. […] The tumors were measured with calipers using the National Cancer Institute formula: V=L(mm)×I^2 (mm)/2 where L is the largest diameter and I is the smallest diameter of the tumor. […] The relative tumor volume (V/V0) was calculated by dividing the measured tumor volume (V) by the initial tumor volume (V0) at day 0. […]

[9] = system: murine bone marrow progenitor cells; test: Colony forming assay, murine bone marrow progenitor cells; assay type: cell-based, mouse; details: murine bone marrow progenitor cells; colony forming assay
Text: We observed less myelosuppression and less weight loss using TMZ and MX than using TMZ and BG. […] To test this hypothesis, we conducted in vitro experiments comparing the sensitivity to BG+TMZ and MX+TMZ in colon cancer cell lines with that of mouse bone marrow and human bone marrow cells. […] MX increased TMZ killing by 4 fold in SW480 cells. […] Topoisomerase (Topo) I and Topo II recognize spontaneous AP sites and form stable cleavable complexes. We hypothesized that AP sites formed during repair of TMZ-induced N7 mG and N3 mA adducts would also be recognized by Topo I and Topo II. However since Base Excision Repair [BER] is normally quite efficient, we further hypothesized that the impact of Topo I and Topo II would be most important after MX inhibition of BER; increased unrepaired MX adducted AP sites should increase Topo mediated strand breaks and apoptosis. Therefore, potentiation of TMZ cytotoxicity by MX would be dependent on Topo I and II. […] Lack of Topo I and II results in less cleavable complex formation, fewer double strand DNA breaks, and less apoptosis. We predict a better therapeutic index for the combination of MX/TMZ than observed with BG/TMZ because of the relative overexpression of topoisomerases I and II in malignant cells compared to marrow progenitors.

CON [MX, methoxyamine]
Toxicity (max. BW loss) [1]: 8.3% | cleavage of modified AP sites by APE [2]: resistant to cleavage | lethal dose [3]: 15 mg/kg | Toxicity (max. BW loss) [4]: 0% | cytotoxicity of MX alone ([5]; 6 mM MX): nontoxic | DMF of MMS ([5]; MMS 0-3 mM plus 6 mM MX 1 hr vs MMS alone): 2.3 | DMF (IC50 for TMZ alone/IC50 for TMZ plus modifier) ([5]; modifier plus TMZ vs TMZ alone): 3.1 fold | effect of modifier on BCNU cytotoxicity ([5]; without BG): No enhancement | effect on cell cycle distribution [6]: did not affect | cytotoxicity of MX alone ([7]; SW480, 6 mM MX): nontoxic | DMF / potentiation of MMS cytotoxicity ([7]; SW480, MMS 0-3 mM plus 6 mM MX and/or BG vs MMS alone): 2.0 fold | DMF (IC50 for TMZ alone/IC50 for TMZ plus modifier(s)) ([7]; SW480, modifier(s) plus TMZ vs TMZ alone): 2.4 fold | effect of modifier on BCNU cytotoxicity ([7]; SW480, without BG): No enhancement | potentiation of TMZ cytotoxicity ([7]; SW480 tumor cells, Example 13): 4 fold | effect of modifier alone on cell cycle distribution [8]: did not affect | potentiation of TMZ cytotoxicity [9]: no potentiation
